Reference: ChEMBL document CHEMBL1128598, “Potential anxiolytic agents. Pyrido[1,2-a]benzimidazoles: a new structural class of ligands for the benzodiazepine binding site on GABA-A receptors” (J Med Chem, 1995)

How the values were obtained:
[1] = target: GABA-A receptor; anion channel; assay: Binding affinity against benzodiazepine site of gamma-aminobutyric-acid A receptor of rat cerebral cortex by using [3H]flunitrazepam in the absence of GABA.; format: tissue-based
[2] = test system: Mus musculus; assay: The ability to block the tonic-clonic component of seizures induced by metrazole in mice after intraperitoneal administration.; format: functional; details: ip
[3] = test system: Rattus norvegicus; assay: Minimum effective dose as dose required to release behavior in suppressed rats by conflict test after intraperitoneal administration.; format: functional; details: ip, read-out: MED
[4] = target: GABA-A receptor; anion channel; assay: Binding affinity against benzodiazepine site of gamma-aminobutyric-acid A receptor of rat cerebral cortex by using [3H]flunitrazepam in the presence of GABA 1 mM.; format: tissue-based
[5] = target: GABA-A receptor; anion channel (Rattus norvegicus) (UniProt O09028+P15431+P18506+P18508+P19969+P20236+P23574+P23576+P28471+P28473+P30191+P62813+P63079+P63138+Q91ZM7+Q9ES14); assay: GABA shift as the ratio of IC50 (no GABA) to that of IC50 (GABA); GABA shift; format: protein-complex assay

| SMILES | IC50 [1] [nM] | ED50 [2] [mg/kg] | minimal effective dose [3] [mg/kg] | IC50 [4] [nM] | GS [5] |
| --- | --- | --- | --- | --- | --- |
| COc1cccc(NC(=O)C2=C(O)CCn3c2nc2ccccc23)c1 | 26 | > 10 | 5 | 16 | 1.6 |
| O=C1CCn2c(nc3ccccc32)/C1=C(\O)Oc1ccccc1 | 200 | 9.9 | > 10 | 150 | 1.4 |
| CN1C(=O)CN=C(c2ccccc2)c2cc(Cl)ccc21 [DIAZEPAM] | – | 0.11 | 5 | – | 2.2 |
| O=C(NC1CC1)C1=C(O)CCn2c1nc1ccccc12 | 16 | > 10 | > 10 | 18 | 0.87 |
| COc1ccccc1NC(=O)C1=C(O)CCn2c1nc1ccccc12 | 990 | > 10 | > 10 | 940 | 1.1 |
| O=C1CCN2C(=C1C(=O)Nc1ccccc1)N(Cc1ccccc1)c1ccccc12 | 12 | 1.4 | 10 | 2.7 | 4.6 |
| CCO/C(O)=C1\C(=O)CCn2c1nc1ccccc12 | 675 | > 10 | – | 840 | 0.68 |
| CN(C(=O)C1=C(O)CCn2c1nc1ccccc12)c1ccccc1 | > 10000 | > 10 | > 10 | > 10000 | – |
| O=C(Nc1ccccc1Cl)C1=C(O)CCn2c1nc1ccccc12 | 12 | 0.95 | 10 | 5.3 | 2.3 |
| O=C(Nc1ccccc1F)c1c(O)ccn2c1nc1ccccc12 | 0.23 | 0.088 | 0.1 | 0.11 | 2.1 |
| O=C(Nc1c(F)cccc1F)C1=C(O)CCn2c1nc1ccccc12 | 2.8 | 0.85 | 0.1 | 1.7 | 1.6 |
| CCN1C2=C(C(=O)Nc3ccccc3)C(=O)CCN2c2ccccc21 | 2.1 | 0.083 | 0.3 | 1.4 | 1.6 |
| O=C(Nc1c(Cl)cccc1Cl)C1=C(O)CCn2c1nc1ccccc12 | 320 | > 30 | > 10 | 170 | 1.9 |
| O=C(Nc1ccccc1F)C1=C(O)CCn2c1nc1ccccc12 | 1.7 | 0.16 | 1 | 1.4 | 1.2 |
| CN1C2=C(C(=O)Nc3ccccc3F)C(=O)CCN2c2ccccc21 | 0.42 | 0.019 | 0.03 | 0.26 | 1.6 |
| O=C(NC1CCCCC1)C1=C(O)CCn2c1nc1ccccc12 | 140 | 3 | 10 | 72 | 2 |
| O=C(Nc1cccc(Cl)c1)C1=C(O)CCn2c1nc1ccccc12 | 120 | > 30 | > 10 | 95 | 1.3 |
| OC1=C(/C(S)=N/c2ccccc2)c2nc3ccccc3n2CC1 | 360 | > 10 | > 10 | 320 | 1.1 |
| CN1C2=C(C(=O)Nc3ccccc3)C(=O)CCN2c2ccccc21 | 5.8 | 0.13 | 1 | 2.1 | 2.8 |
| O=C(NC1CCC1)C1=C(O)CCn2c1nc1ccccc12 | 30 | > 30 | 10 | 25 | 1.2 |
| O=C(Nc1ccc(Cl)cc1)C1=C(O)CCn2c1nc1ccccc12 | 620 | 8.9 | 1 | 265 | 2.3 |
| O=C(Nc1ccccc1)c1c(O)ccn2c1nc1ccccc12 | 24 | 0.39 | 10 | 14 | 1.7 |
| O=C1CCn2c(nc3ccccc32)/C1=C(\O)Sc1ccccc1 | 29 | > 30 | > 10 | 26 | 1.1 |
| O=C1CCN2C(=C1C(=O)Nc1ccccc1)Nc1ccccc12 | 9.1 | 5.2 | 10 | 5.9 | 1.5 |
| COc1ccc(NC(=O)C2=C(O)CCn3c2nc2ccccc23)cc1 | 41 | 2 | 10 | 16 | 2.6 |
| NC(=O)C1=C(O)CCn2c1nc1ccccc12 | 2400 | > 30 | 10 | 6000 | 0.4 |
